In the assay the target is CT-L activity of purified 20S proteasome (Homo sapiens, UniProt P20618+P28074). In words: in vitro CT-L activity of purified 20S proteasome. Format: biochemical.
Where [1] appears, read: Table 1, read-out: IC50 (μM) Chymotrypsin-like activity.

Like-named read-outs stand apart in the source and are kept apart here.

With `CC(C)c1ccc(OCC(=O)N(Cc2nc(-c3cccnc3)no2)C(C)C)cc1` [11ai, N-Isopropyl-2-(4-isopropylphenoxy)-N-((3-(pyridin-3-yl)-1,2,4-oxadiazol-5-yl)methyl)acetamide], the “CT-L inhibitory activity, in words” value is on record as “failed to improve the CT-L activity”. The IC50 under setting [1] was determined as 0.436 ± 0.073 µM.

`CC(C)N(Cc1nc(-c2cccnc2)no1)C(=O)COc1ccc(C(C)(C)C)cc1` [11aj, N-Isopropyl-2-(4-tert-butylphenoxy)-N-((3-(pyridin-3-yl)-1,2,4-oxadiazol-5-yl)methyl)acetamide]: the “CT-L inhibitory activity, in words” value is recorded as “failed to improve the CT-L activity”. Also, the IC50 under setting [1] was found to be 65.9 ± 33.7 µM. Moreover, where the note is “compared to 11ad or 11ae”, the “fold loss of CT-L activity” value is over 35 fold.

For `CC(C)Cc1ccc(OCC(=O)N(Cc2nc(-c3cccnc3)no2)C(C)C)cc1` [11ak, N-Isopropyl-2-(4-isobutylphenoxy)-N-((3-(pyridin-3-yl)-1,2,4-oxadiazol-5-yl)methyl)acetamide], the “CT-L inhibitory activity, in words” value is “failed to improve the CT-L activity”. In addition, the IC50 under setting [1] amounted to 0.14 ± 0.052 µM.

For the compound `CCCc1ccc(OCC(=O)N(Cc2nc(-c3cncnc3)no2)C(C)C)cc1` [11al], the half-maximal inhibitory concentration (IC50) (read-out: IC50, in vitro CT-L) stood at 0.032 µM.

Turning to `CCCc1ccc(OCC(=O)N(Cc2nc(-c3cnccn3)no2)C(C)C)cc1` [11am, N-Isopropyl-2-(4-propylphenoxy)-N-((3-(pyrazin-2-yl)-1,2,4-oxadiazol-5-yl)methyl)acetamide], under setting [1], the IC50 stood at 0.105 ± 0.031 µM. In addition, the “fold loss of CT-L activity” value (compared to 11ad or 11ae) is given as 3 fold.

Regarding `CCCCc1ccc(OCC(=O)N(Cc2nc(-c3cnccn3)no2)C(C)C)cc1` [11an], under setting [1], the half-inhibitory concentration (IC50) stood at 0.107 ± 0.013 µM. In addition, the “fold loss of CT-L activity” value (compared to 11ad or 11ae) was 3 fold.

Consider `CCCc1ccc(OCC(=O)N(Cc2nc(-c3ncccn3)no2)C(C)C)cc1` [11ao, N-Isopropyl-2-(4-propylphenoxy)-N-((3-(pyrimidin-2-yl)-1,2,4-oxadiazol-5-yl)methyl)acetamide], for which the IC50 reads like this: under setting [1], 1.27 ± 0.226 µM; (read-out: IC50, in vitro CT-L) 1.26 µM. Also, under “compared to 11ad or 11ae”, the “fold loss of CT-L activity” value is 40 fold.

`CC(C)N(Cc1nc(-c2ccccc2)no1)C(=O)COc1ccc(C(=O)OC(C)(C)C)cc1` [11aq, tert-Butyl 4-(2-(isopropyl((3-phenyl-1,2,4-oxadiazol-5-yl)methyl)amino)-2-oxoethoxy)benzoate]: the IC50 under setting [1] was over 10 µM.

With `CC(C)N(Cc1nc(-c2ccccc2)no1)C(=O)COc1ccc(C(F)(F)F)cc1` [11b, N-Isopropyl-N-((3-phenyl-1,2,4-oxadiazol-5-yl)methyl)-2-(4-(trifluoromethyl)phenoxy)acetamide], the IC50 is 0.43 ± 0.12 µM under setting [1] and 0.3 to 0.5 µM (read-out: IC50, in vitro CT-L).

On to `CC(C)N(Cc1nc(-c2ccc(C(F)(F)F)cc2)no1)C(=O)COc1ccc(C(F)(F)F)cc1` [11c, N-Isopropyl-2-(4-(trifluoromethyl)phenoxy)-N-((3-(4-(trifluoromethyl)phenyl)-1,2,4-oxadiazol-5-yl)methyl)acetamide], for which, where the note is “read-out: IC50, in vitro CT-L”, the IC50 was found to be 2.53 µM.

In the case of `CC(C)N(Cc1nc(-c2ccc(Cl)cc2)no1)C(=O)COc1ccc(C(F)(F)F)cc1` [11d, N-((3-(4-chlorophenyl)-1,2,4-oxadiazol-5-yl)methyl)-N-isopropyl-2-(4-(trifluoromethyl)phenoxy)acetamide], the IC50 runs as follows: under setting [1], 0.857 ± 0.35 µM; (read-out: IC50, in vitro CT-L) about 1 µM.

`Cc1ccc(-c2noc(CN(C(=O)COc3ccc(Cl)cc3)C(C)C)n2)cc1` [11e, 2-(4-Chlorophenoxy)-N-isopropyl-N-((3-p-tolyl-1,2,4-oxadiazol-5-yl)methyl)acetamide]: the half-maximal inhibitory concentration (IC50) is 1.12 ± 0.33 µM under setting [1] and about 1 µM (read-out: IC50, in vitro CT-L).

As for `CC(C)N(Cc1nc(-c2ccc(C(F)(F)F)cc2)no1)C(=O)COc1ccc(Cl)cc1` [11f, 2-(4-Chlorophenoxy)-N-isopropyl-N-((3-(4-(trifluoromethyl)phenyl)-1,2,4-oxadiazol-5-yl)methyl)acetamide], the 50% inhibitory concentration (IC50) runs as follows: under setting [1], 1.4 ± 0.185 µM; (read-out: IC50, in vitro CT-L) about 1 µM.

Take `CC(C)N(Cc1nc(-c2ccc(Cl)cc2)no1)C(=O)COc1ccc(Cl)cc1` [11g, 2-(4-Chlorophenoxy)-N-((3-(4-chlorophenyl)-1,2,4-oxadiazol-5-yl)methyl)-N-isopropylacetamide]: the IC50 (read-out: IC50, in vitro CT-L) came to 1.07 µM.

`CC(C)N(Cc1nc(-c2ccccc2)no1)C(=O)COc1ccc(Cl)cc1` [11h, 2-(4-Chlorophenoxy)-N-isopropyl-N-((3-phenyl-1,2,4-oxadiazol-5-yl)methyl)acetamide]: the IC50 reads like this: under setting [1], 0.51 ± 0.16 µM; (read-out: IC50, in vitro CT-L) 0.3 to 0.5 µM.

As to `Cc1ccc(OCC(=O)N(Cc2nc(-c3ccc(Cl)cc3)no2)C(C)C)cc1` [11i, N-((3-(4-chlorophenyl)-1,2,4-oxadiazol-5-yl)methyl)-N-isopropyl-2-(p-tolyloxy)acetamide], the 50% inhibitory concentration (IC50) under setting [1] turned out to be 0.45 ± 0.15 µM and the IC50 (read-out: IC50, in vitro CT-L) was about 1 µM.

Take `CC(C)N(Cc1nc(-c2ccccc2)no1)C(=O)COc1ccccc1` [11j, N-Isopropyl-2-phenoxy-N-((3-phenyl-1,2,4-oxadiazol-5-yl)methyl)acetamide]: the “fold loss of CT-L activity” value (compared to 1) was 10 fold. In addition, the IC50 (read-out: IC50, in vitro CT-L) worked out at 6.22 µM.

On to `Cc1ccc(-c2noc(CN(C(=O)COc3ccccc3)C(C)C)n2)cc1` [11k, N-Isopropyl-2-phenoxy-N-((3-p-tolyl-1,2,4-oxadiazol-5-yl)methyl)acetamide], for which the IC50 was determined as 8.47 ± 0.59 µM under setting [1] and 8.4 µM (read-out: IC50, in vitro CT-L). Besides, for the setting “compared to 1”, the “fold loss of CT-L activity” value is recorded as 13 fold.

For the compound `CC(C)N(Cc1nc(-c2ccc(C(F)(F)F)cc2)no1)C(=O)COc1ccccc1` [11l, N-Isopropyl-2-phenoxy-N-((3-(4-(trifluoromethyl)phenyl)-1,2,4-oxadiazol-5-yl)methyl)acetamide], the half-maximal inhibitory concentration (IC50) by setting is: under setting [1], 15.1 ± 6.94 µM; (read-out: IC50, in vitro CT-L) 15 µM. In addition, the “fold loss of CT-L activity” value (compared to 1) came to 25 fold.

Regarding `Cc1ccc(OCC(=O)N(Cc2nc(-c3ccccc3)no2)C(C)C)cc1` [11m, N-isopropyl-N-((3-phenyl-1,2,4-oxadiazol-5-yl)methyl)-2-(p-tolyloxy)acetamide], the IC50 by setting is: under setting [1], 0.31 ± 0.08 µM; (read-out: IC50, in vitro CT-L) 0.3 to 0.5 µM.

Turning to `Cc1ccc(OCC(=O)N(Cc2nc(-c3ccc(C(F)(F)F)cc3)no2)C(C)C)cc1` [11n, N-Isopropyl-2-(p-tolyloxy)-N-((3-(4-(trifluoromethyl)phenyl)-1,2,4-oxadiazol-5-yl)methyl)acetamide], the IC50 was 0.97 ± 0.15 µM under setting [1] and about 1 µM (read-out: IC50, in vitro CT-L).

Consider `Cc1cccc(OCC(=O)N(Cc2nc(-c3ccccc3)no2)C(C)C)c1` [11o, N-isopropyl-N-((3-phenyl-1,2,4-oxadiazol-5-yl)methyl)-2-(m-tolyloxy)acetamide], for which the “CT-L inhibitory activity, in words” value is on record as “loss of in vitro activity”. In addition, under setting [1], the IC50 was over 10 µM.

In the case of `Cc1ccccc1OCC(=O)N(Cc1nc(-c2ccccc2)no1)C(C)C` [11p, N-Isopropyl-N-((3-phenyl-1,2,4-oxadiazol-5-yl)methyl)-2-(o-tolyloxy)acetamide], the “CT-L inhibitory activity, in words” value was “loss of in vitro activity”. Under setting [1], the half-inhibitory concentration (IC50) was over 10 µM.

As to `CC(C)N(Cc1nc(-c2ccccc2)no1)C(=O)COc1ccc(-c2ccccc2)cc1` [11q, 2-(Biphenyl-4-yloxy)-N-isopropyl-N-((3-phenyl-1,2,4-oxadiazol-5-yl)methyl)acetamide], under setting [1], the IC50 is over 10 µM. Moreover, for the setting “read-out: % inhibition of CT-L @ 10 μM, @ 10 μM”, the inhibition at 10 µM is under 70%.

What is called IC50 is the concentration that inhibits the measured activity by half. Usually inhibition stands for the relative decrease from the control value, in per cent.

(Values after patent US9878999B2, “Proteasome chymotrypsin-like inhibition using PI-1833 analogs” (H. Lee Moffitt Cancer Center and Research Institute, Inc., priority 2011, dated 2018).)
